Tests used:
[1] = system: CD133 (+) Huh7 cells; assay: Tumor spheroid formation assay; assay type: cell-based, human; details: CD133 (+) group; ATRA 5 μg/ml, SAHA 0.5 μg/ml; 2 weeks
Experimental: Freshly sorted CD133(+)/(−) Huh7 cells were plated in a low binding culture plate (NUNC 145397) containing 100 cells per well in 100 μl of culture medium with ATRA (5 μg/ml), SAHA (0.5 μg/ml), or a combination of both. After 2 weeks, colony numbers were counted.

[2] = system: PTEN; assay: PTEN 3′-UTR luciferase reporter and western blot of PTEN-FOXO pathway; assay type: cell-based; details: FIG. 47D
[3] = system: Huh7, Hep3B, HepG2, human CSCs and mouse CSCs; assay: Combination dose determination, cell viability of HCC cells; assay type: cell-based
Experimental: Freshly sorted CD133 (+) Huh7 or mouse TICs were plated in 100 μl of medium containing 5000 cells per well in a 96-well plate. After 16 hours, 0.5 μl of a 2 μg/ml, 1 μg/ml, 0.2 μg/ml, 0.1 μg/ml, 0.02 μg/ml, or 0.01 μg/ml compound was added to each well in triplicate, resulting in a 10 μg/ml, 5 μg/ml, 1 μg/ml, 0.5 μg/ml, 0.1 μg/ml, and 0.05 μg/ml final concentration for most compounds, respectively. After 48 hours, the cells were either measured for cell viability by Cell-Glo® Reagent (Promega), or fixed with 1% PFA (paraformaldehyde) and stained with DAPI for high-throughput screening.

[4] = system: CD133 (+) Huh7 cells; assay: In vivo tumorigenicity, CD133 (+) Huh7 cells in NOG mice; set-up: species or system mouse
Experimental: The TUNEL staining was performed according to the manufacturer's instructions (4810-30-K, TREVIGEN). In brief, paraffin-embedded tumor sections from each group were de-paraffinized, re-hydrated, and washed twice in PBS. Samples were covered with Proteinase K solution for 30 minutes at room temperature and then washed two times in deionized water. Slides were immersed in quenching solution for 5 minutes at room temperature and then washed in PBS. Slides were incubated in TdT labeling buffer for 5 minutes, immersed with labeling reaction mix, and incubated at 37° C. for 1 hour in a humidity chamber. Samples were immersed in TdT stop buffer for 5 minutes and then washed twice in deionized water for 5 minutes each at room temperature. Samples were covered with Strep-HRP solution and incubated for 10 minutes at 37° C. and washed twice in PBS. Samples were incubated in DAB solution for 5 minutes and then washed in deionized water several times. The samples were counterstained with Methyl Green and mounted on slides for observation.
CD133 was conjugated to the terminal amine functionality on a polyethylene glycol block of polylactide-polyethylene glycol (PLA-PEG) as previously described (Swaminathan et al., 2013). PLGA (30 mg) was dissolved in 1 ml chloroform containing ATRA (6 mg). An oil-in-water emulsion was formed by emulsifying the polymer drug solution in 6 ml of 2.5% w/v aqueous PVA solution by sonication (Sonicator®XL, Misonix, N.Y.) for 5 minutes in an ice bath. The PLA-PEG-CD133 conjugate was dissolved in chloroform (8 mg/100 μl) and added to the oil-in-water emulsion with stirring. The emulsion was stirred for 18 hours at ambient conditions followed by 2 hours under vacuum to remove residual chloroform. Nanoparticles were recovered by ultracentrifugation (35,000 rpm for 35 minutes at 4° C.; OptimaTMLE-80K, Beckman, Palo Alta, Calif.) and washed three times with deionized water to remove excess PVA and unencapsulated drugs. The nanoparticle suspension was then lyophilized (Labconco, FreeZone 4.5, Kansas City, Mo.). Before injection, the lyophilized nanoparticles were re-dissolved in PBS and filtered with a 0.22 micron filter.
A half million freshly sorted CD133 (+) TICs were suspended in 100 μl of Matrigel™ (BD) and injected subcutaneously into NOD/Shi-scid/IL-2Rγ^null(NOG) mice, six mice per group. After the tumor volume reached 100 mm^3, animals received one intravenous dose of CD133-conjugated RA nanoparticle (5 μg/ml) and SAHA (0.5 μg/ml) daily. The animals were monitored regularly for tumor growth and survival every day. All animals work was performed according to national and international guidelines. Animal studies were based on a protocol approved by the Institutional Animal Care and Use Committee at University of Southern California.

[5] = system: CD133 (+) Huh7 cells; assay: Anchorage-independent growth assay in soft agar; assay type: cell-based, human; details: retinoic acid 5 μg/ml, SAHA 0.5 μg/ml; 2 weeks
Experimental: Freshly sorted CD133 (+)/(−) Huh7 cells were mixed with 0.35% agarose containing 1000 cells per well in culture medium with retinoic acid (5 μg/ml), SAHA (0.5 μg/ml), or a combination of both. After 2 weeks, the colony numbers were counted.

[6] = system: patient-derived TICs; assay: Subcutaneous xenograft of patient-derived TICs in NSG mice; assay type: in vivo, mouse; details: no ATRA, i.p.
Experimental: To establish prognostic biomarkers for the best combination chemotherapy, five different patient-derived TICs were tested for responses as xenografts in NSG mice for the best combination chemotherapy based on mutation/transcriptome subtypes. Anti-tumorigenic ability by ATRA+SAHA targeting TICs encapsulated with SAHA was validated (Table 3). […] As placebo treatment, solvent (DMSO) in an equal total volume (0.2 ml/mouse) was injected. Tumor growth kinetics was studied. Combination of ATRA with SAHA further inhibited the self-renewal abilities of TICs in vivo (FIG. 17E).

[7] = system: Nanog; assay: Nanog-GFP reporter cell screening; assay type: cell-based, mouse; details: TICs with lentivirus Nanog-GFP reporter
Experimental: The Nanog-GFP liver cancer stem cell line was transduced with pGreenZeo-Nanog transcriptional reporter lentivirus vector (System Biosciences SR10031VA-1). The transduced cells were positively selected with zeomycin (10 μg/ml) and further sorted for the GFP-high population (˜20% of total population) for drug screening. Nanog-GFP liver cancer stem cells were then seeded in 100 μl medium containing 5000 cells per well in a 96-well plate. After 16 hours, 0.5 μl of a […] compound was added to each well, resulting in a 10 μg/ml final concentration for most compounds. After 12 hours, the cells were fixed with 1% Paraformadehyde and stained with DAPI; compounds were screened in duplicate. The GFP and DAPI images were acquired using a BD Pathway Bioimaging Systems instrument. Z-score was calculated from the data using the formula z=(X−u)/s.d., where u is the mean, s.d. is the standard deviation of the whole population and X is the sample value calculated based on the ratio of GFP intensity to DAPI intensity. The z-score of selected hits must be less than −1.0. The average of z-score of vehicle control is 2.0±1.04.

`O=C(CCCCCCC(=O)Nc1ccccc1)NO` [SAHA, suberoylanilide hydroxamic acid] was tested, and the “reduction of colony numbers, tumor spheroid formation” value [1] was 66%, the “luciferase-PTEN 3′-UTR reporter activity” value [2] was “increased” and the “cell growth / viability in vitro” value [3] was “failed to reduce cell growth in vitro”. For the same compound, the tumor growth ([4]; ATRA 5 μg/ml in CD133 antibody-conjugated nanoparticles, SAHA 0.5 μg/ml, after 4 days of treatment) was “did not reduce or even promote tumor growth”, the “tumor morphology, hematoxylin and eosin stained sections” value ([4]; NOG mice, CD133 (+) Huh7 tumors) was “did not induce cell death of tumor cells” and the “reduction of colony numbers, anchorage independent growth in soft agar” value [5] was 50%. For the same compound, the “anti-tumorigenic ability, % (animals/total)” value ([6]; SAHA 8 mg/kg (human: 300 mg)) was 10% (2/20), the “anti-tumorigenic ability, % (animals/total)” value ([6]; SAHA 10 mg/kg (human: 400 mg)) was 5% (1/20) and the “anti-tumorigenic ability, % (animals/total)” value ([6]; SAHA 12 mg/kg (human: 500 mg)) was 10% (2/20). For the same compound, the Nanog expression [7] was “suppressed Nanog expression”.
